{"source": "patent US7655597B1", "about": "“Pesticide compositions including polymeric adjuvants” (priority 2009, dated 2010)", "system": "fire ants", "assay": "fire ant kill test in insecticide-coated mason jar (time to death of entire population)", "type": "in vivo", "conditions": "Table 1", "procedure": "In this example a series of commercially available insecticides were tested at various dilution levels and with and without a preferred copolymer, namely the AVAIL® copolymer previously described (a 40%-60% w/w aqueous composition of a saturated sodium salt of a maleic anhydride/itaconic acid copolymer in water). In each set of test runs, the selected insecticide was tested with a population of fire ants in order to determine the time required to kill the entire population.\nIn particular, in each test run 20 ml of the respective liquid insecticide composition was added to a mason jar and swirled around the inside bottom thereof. The liquid was then poured off and the remainder was allowed to dry on the inner jar surface, creating substantially a monomeric dried layer. The outside neck surface of the jar was then coated in talc, and the open end of the jar was placed into a fire ant nest. The talc coating prevented the aggressive fire ants from climbing the outer surface of the jar. A population of fire ants was thus established in each jar, and the jar was then topped with an apertured mason jar cap. The time to death of all of the fire ants was then recorded.\nIn each case, the recommended concentration of insecticide was prepared (recorded as “1X”), followed by dilutions with water to create the diluted compositions. Where copolymer was used, the copolymer was added to the insecticide with gentle mixing, at a level of 30 ml per gallon. If desired, lesser amounts of copolymer could be used, e.g., 20 ml per gallon.\nIn another series of tests, insecticides were tested with various copolymers having different ratios of maleic anhydride and itaconic acid moieties, and at different pH levels. In particular, respective copolymeric compositions were prepared made up of polymaleic acid, a 1:3 weight ratio of maleic anhydride to itaconic acid, a 1:1 weight ratio of maleic anhydride to itaconic acid, a 3:1 weight ratio of maleic anhydride to itaconic acid, and a 7:1 weight ratio of maleic anhydride to itaconic acid. […]", "key": {"[1]": {"conditions": "insecticide at 1X (recommended concentration), time to death of all fire ants"}}, "data": [{"smiles": "CC1(C)C(C=C(Cl)Cl)C1C(=O)OCc1cccc(Oc2ccccc2)c1", "note": "(stereo not drawn) [permethrin, (3-phenoxyphenyl)methyl 3-(2,2-dichloroethenyl)-2,2-dimethyl-cyclopropane-1-carboxylate]", "values": [{"measurement": "TIME TO DEATH", "setting": "insecticide at 1/3X dilution", "value": 5, "unit": "min"}, {"measurement": "TIME TO DEATH", "setting": "[1]", "value": 5, "unit": "min"}]}, {"smiles": "CCOC(=O)CC(SP(=S)(OC)OC)C(=O)OCC", "note": "(stereo not drawn) [malathion, 2-(dimethoxyphosphinothioylthio) butanedioic acid diethyl ester]", "values": [{"measurement": "TIME TO DEATH", "setting": "[1]", "value": 1, "unit": "min"}]}]}
